Laboratory results from PubChem BioAssay AID248 (DTP/NCI, 2004).
Where “and” joins values, the source holds several entries; their conditions need not be identical. Identical values can stand only once. Inconclusive results and toxic doses are left out. No stated cut-off is given here; in the data, active means T/C of 150% or more; inactive means T/C below 125%.

Tested on: L1210 leukemia ip in BDF1 mice, survival T/C
Experiment: NCI In Vivo Anticancer Drug Screen. Data for tumor model L1210 Leukemia (intraperitoneal) in B6D2F1 (BDF1) mice
Conditions: endpoint: mean survival time, higher = longer survival
Outline: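 Mice bearing the transplanted tumor received compound or vehicle. Survival of the treated group was divided by that of the vehicle-treated control group to give the ratio.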

[1] = dose: 50.0 mg/kg/injection, schedule: Q01DX009 (ip), vehicle: saline
[2] = dose: 100.0 mg/kg/injection, schedule: Q01DX009 (ip), vehicle: saline
[3] = dose: 100.0 mg/kg/injection, schedule: Q04DX003 (ip), vehicle: saline
[4] = dose: 200.0 mg/kg/injection, schedule: Q01DX009 (ip), vehicle: saline
[5] = dose: 200.0 mg/kg/injection, schedule: Q04DX003 (ip), vehicle: saline
[6] = dose: 400.0 mg/kg/injection, schedule: Q01DX009 (ip), vehicle: saline
[7] = dose: 400.0 mg/kg/injection, schedule: Q04DX003 (ip), vehicle: saline
[8] = dose: 100.0 mg/kg/injection, schedule: Q01DX001 (ip), vehicle: other
[9] = dose: 200.0 mg/kg/injection, schedule: Q01DX001 (ip), vehicle: other
[10] = dose: 400.0 mg/kg/injection, schedule: Q01DX001 (ip), vehicle: other
[11] = dose: 100.0 mg/kg/injection, schedule: Q04DX003 (ip), vehicle: saline with Tween-80
[12] = dose: 200.0 mg/kg/injection, schedule: Q04DX003 (ip), vehicle: saline with Tween-80
[13] = dose: 100.0 mg/kg/injection, schedule: Q04DX002 (ip), vehicle: Klucel (hydroxypropylcellulose) (HPC)
[14] = dose: 200.0 mg/kg/injection, schedule: Q04DX002 (ip), vehicle: Klucel (hydroxypropylcellulose) (HPC)
[15] = dose: 400.0 mg/kg/injection, schedule: Q04DX002 (ip), vehicle: Klucel (hydroxypropylcellulose) (HPC)
[16] = dose: 75.0 mg/kg/injection, schedule: Q01DX001 (ip), vehicle: saline
[17] = dose: 100.0 mg/kg/injection, schedule: Q01DX009 (ip), vehicle: saline with Tween-80
[18] = dose: 200.0 mg/kg/injection, schedule: Q01DX009 (ip), vehicle: saline with Tween-80
[19] = dose: 400.0 mg/kg/injection, schedule: Q01DX009 (ip), vehicle: saline with Tween-80
[20] = dose: 100.0 mg/kg/injection, schedule: Q01DX009 (ip), vehicle: Klucel (hydroxypropylcellulose) (HPC)

Measured: T/C

OC1C=CC2C3C=CC(C3)C12 (stereo unspecified)
inactive: [1] 102 % of control | dose: 50.0 mg/kg/injection, schedule: Q04DX003 (ip), vehicle: saline 102 % of control | [2] 104 % of control | [3] 103 % of control | [4] 95 % of control | [5] 94 % of control | [6] 95 % of control | [7] 91 % of control

CCOC(=O)Cc1cc(=O)c2ccc(Cl)cc2[nH]1
inactive: [8] 92 % of control | [9] 97 % of control | [10] 92 % of control

N#CCCN1CCCSC1=S
inactive: dose: 75.0 mg/kg/injection, schedule: Q01DX001 (ip), vehicle: other 109 % of control | dose: 150.0 mg/kg/injection, schedule: Q01DX001 (ip), vehicle: other 115 % of control | dose: 300.0 mg/kg/injection, schedule: Q01DX001 (ip), vehicle: other 113 % of control

O=[N+]([O-])c1ccc(/C=N\NC(=S)Nc2ccc3cn[nH]c3c2)cc1
inactive: dose: 50.0 mg/kg/injection, schedule: Q01DX001 (ip), vehicle: carboxymethylcellulose (CMC) 91 % of control | dose: 100.0 mg/kg/injection, schedule: Q01DX001 (ip), vehicle: carboxymethylcellulose (CMC) 97 % of control | dose: 200.0 mg/kg/injection, schedule: Q01DX001 (ip), vehicle: carboxymethylcellulose (CMC) 97 % of control | dose: 400.0 mg/kg/injection, schedule: Q01DX001 (ip), vehicle: carboxymethylcellulose (CMC) 105 % of control

O=C(O)CCC(=O)CC1CCCCC1
inactive: [11] 101 % of control | [12] 87 % of control

CCCCCCCCCCCCCCCCS(=O)(=O)c1ccc(S(=O)(=O)CS(C)(=O)=O)cc1[N+](=O)[O-]
inactive: [8] 98 % of control | [9] 91 % of control

COC(=O)C1=C(C(=O)OC)C2C=CC1C1(C)NC(=O)C21C (stereo unspecified)
inactive: [13] 94 % of control | [14] 91 % of control | [15] 97 % of control

Nc1ccc(C(=O)N/N=C\c2cccc3ccccc23)cc1
inactive: [13] 97 % of control | [14] 90 % of control | [15] 93 % of control

C[n+]1ccccc1/C=C/c1ccc(O)c(O)c1
inactive: [16] 96 % of control | dose: 300.0 mg/kg/injection, schedule: Q01DX001 (ip), vehicle: saline 102 % of control

C=CCc1ccc(OC(=O)Nc2cccc3ccccc23)c(OC)c1
inactive: [13] 96 % of control | [14] 124 % of control | [15] 93 % of control

CC(C)NCCNc1ccnc2cc(Cl)ccc12
inactive: dose: 10.0 mg/kg/injection, schedule: Q01DX001 (ip), vehicle: saline 94 % of control | dose: 20.0 mg/kg/injection, schedule: Q01DX001 (ip), vehicle: saline 98 % of control | dose: 40.0 mg/kg/injection, schedule: Q01DX001 (ip), vehicle: saline 96 % of control

Cn1c[n+](C)cc1C(=O)[O-]
inactive: [2] 91 % of control | [3] 97 % of control | [4] 97 % of control | [5] 102 % of control | [6] 95 % of control | [7] 109 % of control

CCCCC1=NCCc2c1cc1c([nH]c3ccccc31)c2C
inactive: [3] 96 % of control | [5] 95 % of control

Clc1ccc2c(n1)Sc1c(Cl)nc(Cl)nc1N2
inactive: dose: 100.0 mg/kg/injection, schedule: Q01DX001 (ip), vehicle: Klucel (hydroxypropylcellulose) (HPC) 95 % of control | dose: 200.0 mg/kg/injection, schedule: Q01DX001 (ip), vehicle: Klucel (hydroxypropylcellulose) (HPC) 108 % of control | dose: 400.0 mg/kg/injection, schedule: Q01DX001 (ip), vehicle: Klucel (hydroxypropylcellulose) (HPC) 93 % of control

CCCS(=O)[O-].CCCS(=O)[O-].[Zn+2]
inactive: [16] 104 % of control

COc1ccc(OC)c(C2=CCCCCC2)c1OC
inactive: [17] 95 % of control | [18] 106 % of control | [19] 100 % of control

CC(C)CCC1(c2ccccc2)C(=O)NC(=O)NC1=O
inactive: dose: 100.0 mg/kg/injection, schedule: Q01DX001 (ip), vehicle: saline 92 % of control

CCCCCCCCOc1ccc(C=Nc2ccc(C(=O)OCC)cc2)cc1
inactive: [20] 87 % of control | dose: 200.0 mg/kg/injection, schedule: Q01DX009 (ip), vehicle: Klucel (hydroxypropylcellulose) (HPC) 92 % of control | dose: 400.0 mg/kg/injection, schedule: Q01DX009 (ip), vehicle: Klucel (hydroxypropylcellulose) (HPC) 94 % of control

COc1cc2c(c(OC)c1OC)-c1ccc(=O)c(N)cc1C(NC(C)=O)CC2 (stereo unspecified)
inactive: dose: 1.8 mg/kg/injection, schedule: Q01DX Z (ip), vehicle: carboxymethylcellulose (CMC) 97 % of control | dose: 3.7 mg/kg/injection, schedule: Q01DX Z (ip), vehicle: carboxymethylcellulose (CMC) 101 % of control | dose: 7.5 mg/kg/injection, schedule: Q01DX Z (ip), vehicle: carboxymethylcellulose (CMC) 105 % of control | dose: 15.0 mg/kg/injection, schedule: Q01DX Z (ip), vehicle: carboxymethylcellulose (CMC) 105 % of control | dose: 30.0 mg/kg/injection, schedule: Q01DX Z (ip), vehicle: carboxymethylcellulose (CMC) 110 % of control and 112 % of control | dose: 60.0 mg/kg/injection, schedule: Q01DX Z (ip), vehicle: carboxymethylcellulose (CMC) 114 % of control and 122 % of control | dose: 240.0 mg/kg/injection, schedule: Q01DX Z (ip), vehicle: carboxymethylcellulose (CMC) 121 % of control

CNC(=O)NCC1OC(OC2(CO)OC(CNC(=O)NC)C(O)C2O)C(O)C(O)C1O (stereo unspecified)
inactive: [1] 91 % of control | [2] 98 % of control | [4] 98 % of control

O=[As](O)(c1ccccc1)C1CCCCC1O (stereo unspecified)
inactive: dose: 6.25 mg/kg/injection, schedule: Q01DX001 (ip), vehicle: saline with Tween-80 97 % of control | dose: 12.5 mg/kg/injection, schedule: Q01DX001 (ip), vehicle: saline with Tween-80 98 % of control | dose: 25.0 mg/kg/injection, schedule: Q01DX001 (ip), vehicle: saline with Tween-80 111 % of control

CCOC(=O)C(O)(C#CC(C)C)C1CCCCC1 (stereo unspecified)
inactive: [8] 94 % of control | [9] 89 % of control | [10] 94 % of control

C[C@]12CCC(=O)C=C1CC[C@@H]1[C@@H]2[C@@H](O)C[C@@]2(C)[C@H]1CC[C@]2(O)C(=O)COC(=O)c1ccc([N+](=O)[O-])cc1Cl
inactive: dose: 100.0 mg/kg/injection, schedule: Q01DX001 (sc), vehicle: steriod suspending solution 101 % of control | dose: 200.0 mg/kg/injection, schedule: Q01DX001 (sc), vehicle: steriod suspending solution 101 % of control | dose: 400.0 mg/kg/injection, schedule: Q01DX001 (sc), vehicle: steriod suspending solution 97 % of control

CC(Br)C(=O)Nc1ccccc1 (stereo unspecified)
inactive: [17] 93 % of control | [11] 101 % of control | [18] 103 % of control | [12] 95 % of control | [19] 90 % of control | dose: 400.0 mg/kg/injection, schedule: Q04DX003 (ip), vehicle: saline with Tween-80 95 % of control

O=S(=O)(F)c1cc(Cl)c(O)c(S(=O)(=O)F)c1
inactive: [20] 101 % of control
